As usually defined, the pIC50 is −log10 of the IC50, conventionally taken in molar units.

These results are taken from patent US10980890B2, “Compounds comprising self-immolative group” (LegoChem Biosciences, Inc., priority 2014, dated 2021).

pIC50: −log10 of the molar value. Square brackets hold non-standard residues; d marks the D form. Peptide text beside a SMILES is read from it. Dolaproine = CO[C@@H]([C@@H]1CCCN1)[C@@H](C)C(=O)O; Dil = CC[C@H](C)[C@H](NC)[C@@H](CC(=O)O)OC; NMeV = CN[C@H](C(=O)O)C(C)C

Assay in all cases: Anti-proliferation assay of ADC (SRB)
What all share (type): cell-based, human
Settings in all cases: 72 hours, drug

The test system of experiment [1] is SK-Br3 (HER2 positive) breast cancer cell line. Here is the method: (§1) Anti-cell proliferation activities of antibodies, a drug, and ADC(s) illustrated in the following Table 2 on cancer cell lines were measured.
(§2) As the cancer cell lines, commercialized human breast cancer cell lines MCF-7 (HER2-negative or -normal) and SK-Br3 (HER2 positive), and a commercialized ovarian cancer cell lines SK-OV3 (HER2 positive) were used. As the drug, MMAF was used.
After 72 hours, the numbers of living cells were quantified using a Sulforhodamine B (SRB) dye.

For experiment [2], the system named is MCF-7 (HER2-negative or -normal) breast cancer cell line. Here is the method: as §1, §2
(§3) After each of the cancer cell lines was seeded in a 96-well plate at 10,000 cells/each well and cultured for 24 hours, the antibody and ADC were treated at a concentration of 0.01563-2 μg/ml (2 times serial dilution), and the drug was treated at a concentration of 4-500 nM (2 times serial dilution). After 72 hours, the numbers of living cells were quantified using a Sulforhodamine B (SRB) dye.

In experiment [3] the test system is SK-OV3 (HER2 positive) ovarian cancer cell line. Here is the method: as §1, §2, §3

On to `CC[C@H](C)[C@@H]([C@@H](CC(=O)N1CCC[C@H]1[C@H](OC)[C@@H](C)C(=O)N[C@@H](Cc1ccccc1)C(=O)O)OC)N(C)C(=O)[C@@H](NC(=O)[C@@H](NC)C(C)C)C(C)C` [MMAF, monomethylauristatin F] (H-[NMeV]V[Dil][Dolaproine]F-OH), for which the pIC50 in experiment [1] is 6.87; in experiment [2] it was 6.85; in experiment [3], 6.64.
